Data published in patent US20120149080A1, “YEAST PRODUCTION CULTURE FOR THE PRODUCTION OF BUTANOL” (Butamax(TM) Advanced Biofuels LLC, priority 2010, published 2012).
Where two headings read alike, the source gives them in different places.

Legend:
Yeast cultures = details: 1% butanol
Protocol: Survival was measured by assaying the number of colony forming units (CFU), which is a measure of live cells.

[1] = tested on: Saccharomyces cerevisiae BY4743; test: 24 hour survival (CFU) at low and high cell density; format: cell-based
Protocol: Saccharomyces cerevisiae BY4743 (ATCC 201390) was plated from a freezer vial onto YPD agar (Teknova, Hollister, Calif.; Cat. #Y1000) and incubated overnight at 30° C. Cells from the YPD plate were inoculated into a 25 ml pre-culture of YPD broth (Teknova; Cat. #Y5000) with an initial OD600 of 0.06 to 0.08. The pre-culture was grown for 7 hours in an aerobic shaker at 30° C. An aliquot of the pre-culture was inoculated into 200 ml of YPD broth, with an initial OD600 of 0.06 to 0.08, and this culture was incubated with aeration at 30° C. for approximately 17 hours. The optical density of the culture was measured, the culture was centrifuged and the cells were resuspended to yield an OD600 of 5 in fresh YPD broth. This is referred to as a high cell density (HCD) culture. […] This is referred to as a low the cell density (LCD) culture. These cultures were incubated at 30° C. with shaking for 30 minutes for an acclimation period. At the end of the 30 minute acclimation period, the OD600 was measured. 5 ml of low or high cell density culture was dispensed to 15 ml conical tubes which contained different concentrations of the alcohol to be tested. A control tube included no alcohol. The tubes were placed in a rotary drum at 30° C. and incubated for 24 hours. The time of addition of cells was referred to as “time 0”. […] Colony forming units (CFUs) were determined on YPD plates at time 0 for the control and at 24 hours for each of the cultures, including the control culture, using standard microbiological methods. […] Colonies were counted after 48 hours, and CFUs/ml were calculated. At time 0, the low cell density cultures had about 4.8×10^5 CFUs/ml, and the high cell density cultures had about 5.4×10^7 CFUs/ml.

[2] = 2.0% (w/v) alcohol, high cell density
[3] = 2.0% (w/v) alcohol, low cell density

Compound: butanol
- survival rate compared to control culture without butanol (Yeast cultures; high cell density cultures): at least 40%
- survival rate compared to control culture without butanol (Yeast cultures; low cell density cultures (100-fold fewer cells)): up to 13%

Compound: CCCCO [1-Butanol, 1-butanol]
- Percent Survival HCD (%) ([1]; 1.0% (w/v) alcohol, high cell density OD600 5): 72.2%
- Percent Survival LCD (%) ([1]; 1.0% (w/v) alcohol, low cell density OD600 0.05): 1.3%
- Percent Survival HCD (%) ([1]; 1.5% (w/v) alcohol, high cell density): 57.3%
- Percent Survival LCD (%) ([1]; 1.5% (w/v) alcohol, low cell density): 0.4%
- Percent Survival HCD (%) [1, 2]: 3.6%
- Percent Survival LCD (%) [1, 3]: 0.1%

Compound: CCO [Ethanol, ethanol]
- Percent Survival HCD (%) [1, 2]: 62.5%
- Percent Survival LCD (%) [1, 3]: 100.0%
- Percent Survival HCD (%) ([1]; 4% (w/v) alcohol, high cell density): 50.2%
- Percent Survival LCD (%) ([1]; 4% (w/v) alcohol, low cell density): 100.0%
- Percent Survival HCD (%) ([1]; 5% (w/v) alcohol, high cell density): 38.9%
- Percent Survival LCD (%) ([1]; 5% (w/v) alcohol, low cell density): 25.3%

Compound: CCC(C)O (centres unmarked) [2-Butanol, 2-butanol]
- Percent Survival HCD (%) [1, 2]: 27.6%
- Percent Survival LCD (%) [1, 3]: 0.3%
- Percent Survival HCD (%) ([1]; 3% (w/v) alcohol, high cell density): 18.9%
- Percent Survival LCD (%) ([1]; 3% (w/v) alcohol, low cell density): 0.1%
- Percent Survival HCD (%) ([1]; 3.5% (w/v) alcohol, high cell density): <0.001%
- Percent Survival LCD (%) ([1]; 3.5% (w/v) alcohol, low cell density): <0.001%
